Key:
human orexin-1 receptor = human orexin-1 receptor (Homo sapiens (Human), UniProt O43613); assay: In vitro assay: intracellular calcium measurements (FLIPR), antagonistic activity; format: cell-based; details: CHO cells expressing human orexin-1 receptor, orexin-A agonist, geometric mean, read-out: IC50 Ox1
Method in brief: (§1)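 Dye-loaded CHO cells expressing either human orexin receptor are exposed to test antagonist for 120 min, then stimulated with orexin-A at 3 nM.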

human orexin-2 receptor = human orexin-2 receptor (Homo sapiens (Human), UniProt O43614); assay: as above; format: cell-based; details: CHO cells expressing human orexin-2 receptor, orexin-A agonist, geometric mean, read-out: IC50 Ox2
Method in brief: as §1

human orexin-2 receptor, sequence (O43614 whole entry): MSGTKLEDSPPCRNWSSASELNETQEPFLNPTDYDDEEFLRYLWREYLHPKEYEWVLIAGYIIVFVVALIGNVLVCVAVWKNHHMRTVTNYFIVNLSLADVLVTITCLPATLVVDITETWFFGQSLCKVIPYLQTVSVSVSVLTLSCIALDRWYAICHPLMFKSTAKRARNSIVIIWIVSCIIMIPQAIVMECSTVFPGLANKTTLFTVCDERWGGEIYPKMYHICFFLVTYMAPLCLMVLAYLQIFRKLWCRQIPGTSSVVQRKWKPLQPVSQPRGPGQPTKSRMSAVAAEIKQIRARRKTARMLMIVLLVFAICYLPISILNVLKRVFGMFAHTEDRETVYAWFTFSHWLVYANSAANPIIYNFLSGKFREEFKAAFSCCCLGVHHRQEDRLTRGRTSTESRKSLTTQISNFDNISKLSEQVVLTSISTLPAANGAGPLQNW
human orexin-1 receptor, sequence (O43613 whole entry): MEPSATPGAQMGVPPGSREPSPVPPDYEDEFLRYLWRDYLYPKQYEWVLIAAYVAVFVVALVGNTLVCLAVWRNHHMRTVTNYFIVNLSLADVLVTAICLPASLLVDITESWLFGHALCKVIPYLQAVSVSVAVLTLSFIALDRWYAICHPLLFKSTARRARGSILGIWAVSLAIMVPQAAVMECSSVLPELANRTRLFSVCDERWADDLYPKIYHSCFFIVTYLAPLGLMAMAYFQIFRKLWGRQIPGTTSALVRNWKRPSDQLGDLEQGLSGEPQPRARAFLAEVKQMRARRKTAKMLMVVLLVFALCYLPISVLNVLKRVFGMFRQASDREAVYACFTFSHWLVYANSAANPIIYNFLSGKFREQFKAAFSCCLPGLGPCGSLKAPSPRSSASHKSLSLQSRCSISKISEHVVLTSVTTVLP

SMILES	IC50 (human orexin-1 receptor)	IC50 (human orexin-2 receptor)
Cc1nc(C(=O)N2CC[C@H](C)[C@H]2c2nc3cc(Cl)c(C)cc3[nH]2)c(-c2cccc(Cl)c2)s1 [Ex. 4.15]	2 nM	670 nM
Cc1cc(C)c2nc([C@@H]3[C@@H](C)CCN3C(=O)c3nc(C)sc3-c3cccc(Cl)c3)[nH]c2c1 [Ex. 4.16]	1 nM	250 nM
Cc1nc(C(=O)N2CC[C@H](C)[C@H]2c2nc3c(CO)cccc3[nH]2)c(-c2cccc(Cl)c2)s1 [Ex. 4.17]	14 nM	1670 nM
Cc1nc(C(=O)N2CC[C@H](C)[C@H]2c2nc3c(F)cccc3[nH]2)c(-c2cccc(Cl)c2)s1 [Ex. 4.18]	43 nM	2930 nM
Cc1nc(C(=O)N2CC[C@H](C)[C@H]2c2nc3c(C(F)(F)F)cccc3[nH]2)c(-c2cccc(Cl)c2)s1 [Ex. 4.19]	2 nM	422 nM
Cc1nc(C(=O)N2CC[C@H](C)[C@H]2c2nc3cc(F)ccc3[nH]2)c(-c2cccc(Cl)c2)s1 [Ex. 4.20]	28 nM	2450 nM
Cc1nc(C(=O)N2CC[C@H](C)[C@H]2c2nc3c(C)c(Cl)ccc3[nH]2)c(-c2cccc(Cl)c2)s1 [Ex. 4.21]	1 nM	133 nM
Cc1nc(C(=O)N2CC[C@H](C)[C@H]2c2nc3cccc(Cl)c3[nH]2)c(-c2cccc(Cl)c2)s1 [Ex. 4.22]	6 nM	1080 nM
Cc1nc(C(=O)N2CC[C@H](C)[C@H]2c2nc3c(F)c(F)ccc3[nH]2)c(-c2cccc(Cl)c2)s1 [Ex. 4.23]	9 nM	1940 nM
Cc1nc(C(=O)N2CC[C@H](C)[C@H]2c2nc3c(C)c(C)ccc3[nH]2)c(-c2cccc(Cl)c2)s1 [Ex. 4.24]	2 nM	367 nM
Cc1nc(C(=O)N2CC[C@H](C)[C@H]2c2nc3c(C(C)C)cccc3[nH]2)c(-c2cccc(Cl)c2)s1 [Ex. 4.25]	4 nM	441 nM
COc1ccc2nc([C@@H]3[C@@H](C)CCN3C(=O)c3nc(C)sc3-c3cccc(Cl)c3)[nH]c2c1 [Ex. 4.26]	17 nM	2280 nM
Cc1nc(C(=O)N2CC[C@H](C)[C@H]2c2nc3cc(CO)ccc3[nH]2)c(-c2cccc(Cl)c2)s1 [Ex. 4.27]	59 nM	5590 nM
Cc1nc(C(=O)N2CC[C@H](C)[C@H]2c2nc3cc(Cl)cc(C)c3[nH]2)c(-c2cccc(Cl)c2)s1 [Ex. 4.28]	2 nM	486 nM
Cc1ccc(-n2nccn2)c(C(=O)N2CC[C@H](C)[C@H]2c2nc3cc(C(F)(F)F)ccc3[nH]2)c1 [Ex. 4.29]	30 nM	353 nM
Cc1ccc(-n2nccn2)c(C(=O)N2CC[C@H](C)[C@H]2c2nc3cc(C)c(C)cc3[nH]2)c1 [Ex. 4.30]	12 nM	155 nM
COc1cccc2[nH]c([C@@H]3[C@@H](C)CCN3C(=O)c3cc(C)ccc3-n3nccn3)nc12 [Ex. 4.31]	77 nM	774 nM
Cc1ccc(-n2nccn2)c(C(=O)N2CC[C@H](C)[C@H]2c2nc3cc(Cl)c(C)cc3[nH]2)c1 [Ex. 4.32]	7 nM	156 nM
Cc1ccc(-n2nccn2)c(C(=O)N2CC[C@H](C)[C@H]2c2nc3c(C)cc(C)cc3[nH]2)c1 [Ex. 4.33]	9 nM	294 nM
Cc1ccc(-n2nccn2)c(C(=O)N2CC[C@H](C)[C@H]2c2nc3c(C(F)(F)F)cccc3[nH]2)c1 [Ex. 4.34]	37 nM	1880 nM

SMILES	IC50 (human orexin-1 receptor)	IC50 (human orexin-2 receptor)
Cc1ccc(-n2nccn2)c(C(=O)N2CC[C@H](C)[C@H]2c2nc3c(C)c(Cl)ccc3[nH]2)c1 [Ex. 4.35]	3 nM	193 nM
Cc1ccc(-n2nccn2)c(C(=O)N2CC[C@H](C)[C@H]2c2nc3c(Cl)cccc3[nH]2)c1 [Ex. 4.36]	70 nM	2740 nM
Cc1ccc(-n2nccn2)c(C(=O)N2CC[C@H](C)[C@H]2c2nc3c(C)c(C)ccc3[nH]2)c1 [Ex. 4.37]	24 nM	988 nM
Cc1ccc(-n2nccn2)c(C(=O)N2CC[C@H](C)[C@H]2c2nc3c(C(C)C)cccc3[nH]2)c1 [Ex. 4.38]	55 nM	756 nM
Cc1ccc(-n2nccn2)c(C(=O)N2CC[C@H](C)[C@H]2c2nc3cc(Cl)cc(C)c3[nH]2)c1 [Ex. 4.39]	14 nM	315 nM
COc1cc2nc([C@@H]3[C@@H](C)CCN3C(=O)c3cc(Cl)ccc3-n3nccn3)[nH]c2cc1OC [Ex. 4.40]	21 nM	28 nM
COc1cc2nc([C@@H]3[C@@H](C)CCN3C(=O)c3cc(F)ccc3-n3nccn3)[nH]c2cc1OC [Ex. 4.41]	182 nM	248 nM
COc1cc2nc([C@@H]3[C@@H](C)CCN3C(=O)c3c(F)cccc3-n3nccn3)[nH]c2cc1OC [Ex. 4.42]	365 nM	1130 nM
COc1ccc(-n2nccn2)c(C(=O)N2CC[C@H](C)[C@H]2c2nc3cc(OC)c(OC)cc3[nH]2)c1 [Ex. 4.43]	39 nM	97 nM
COc1cc2nc([C@@H]3[C@@H](C)CCN3C(=O)c3c(-n4nccn4)ccc(C)c3F)[nH]c2cc1OC [Ex. 4.44]	38 nM	246 nM
COc1cc2nc([C@@H]3[C@@H](C)CCN3C(=O)c3c(-n4nccn4)ccc(OC)c3F)[nH]c2cc1OC [Ex. 4.45]	124 nM	5780 nM
COc1cc2nc([C@@H]3[C@@H](C)CCN3C(=O)c3ccc(C)cc3-n3nccn3)[nH]c2cc1OC [Ex. 4.46]	14 nM	51 nM
COc1cc2nc([C@@H]3[C@@H](C)CCN3C(=O)c3cc(C(F)(F)F)ccc3-n3nccn3)[nH]c2cc1OC [Ex. 4.47]	176 nM	281 nM
COc1cc2nc([C@@H]3[C@@H](C)CCN3C(=O)c3c(C)cccc3-n3nccn3)[nH]c2cc1OC [Ex. 4.48]	391 nM	1320 nM
COc1cc2nc([C@@H]3[C@@H](C)CCN3C(=O)c3ccccc3-n3nccn3)[nH]c2cc1OC [Ex. 4.49]	221 nM	533 nM
COc1cc2nc([C@@H]3[C@@H](C)CCN3C(=O)c3nc(C)sc3-c3ccc(C(F)(F)F)cc3)[nH]c2cc1OC [Ex. 4.50]	373 nM	4220 nM
COc1cc2nc([C@@H]3[C@@H](C)CCN3C(=O)c3sc(C)nc3-c3ccc(C)cc3)[nH]c2cc1OC [Ex. 4.51]	99 nM	677 nM
COc1cc2nc([C@@H]3[C@@H](C)CCN3C(=O)c3nc(C)sc3-c3cc(F)cc(F)c3)[nH]c2cc1OC [Ex. 4.52]	19 nM	1070 nM
COc1ccc(-c2sc(C)nc2C(=O)N2CC[C@H](C)[C@H]2c2nc3cc(OC)c(OC)cc3[nH]2)cn1 [Ex. 4.53]	111 nM	4440 nM
COc1cc2nc([C@@H]3[C@@H](C)CCN3C(=O)c3nc(C)sc3-c3ccc(F)cc3)[nH]c2cc1OC [Ex. 4.54]	21 nM	2320 nM

SMILES	IC50 (human orexin-1 receptor)	IC50 (human orexin-2 receptor)
COc1cc2nc([C@@H]3[C@@H](C)CCN3C(=O)c3ncsc3-c3cccc(Cl)c3)[nH]c2cc1OC [Ex. 4.55]	167 nM	7970 nM
COc1cc2nc([C@@H]3[C@@H](C)CCN3C(=O)c3ccccc3-n3cccn3)[nH]c2cc1OC [Ex. 4.56]	283 nM	2620 nM
COc1cc2nc([C@@H]3[C@@H](C)CCN3C(=O)c3cc(C)ccc3-n3cccn3)[nH]c2cc1OC [Ex. 4.57]	59 nM	250 nM
COc1cc2nc([C@@H]3[C@@H](C)CCN3C(=O)c3ccccc3-c3ccc(C)cc3)[nH]c2cc1OC [Ex. 4.58]	66 nM	2170 nM
Cc1c(Cl)ccc2[nH]c([C@@H]3[C@@H](C)CCN3C(=O)c3ccccc3-n3nccn3)nc12 [Ex. 4.59]	6 nM	67 nM
Cc1c(Cl)ccc2[nH]c([C@@H]3[C@@H](C)CCN3C(=O)c3cc(Cl)ccc3-n3nccn3)nc12 [Ex. 4.60]	2 nM	65 nM
Cc1ccc(-c2ccccc2C(=O)N2CC[C@H](C)[C@H]2c2nc3c(C)c(Cl)ccc3[nH]2)cc1 [Ex. 4.61]	0.9 nM	72 nM
Cc1ccc(C(=O)N2CC[C@H](C)[C@H]2c2nc3c(C)c(Cl)ccc3[nH]2)c(-n2nccn2)c1 [Ex. 4.62]	3 nM	19 nM
Cc1nc(C(=O)N2CC[C@H](C)[C@H]2c2nc3c(C)c(Cl)ccc3[nH]2)c(-c2ccc(Cl)cc2)s1 [Ex. 4.63]	0.8 nM	122 nM
Cc1ccc(-n2cccn2)c(C(=O)N2CC[C@H](C)[C@H]2c2nc3c(C)c(Cl)ccc3[nH]2)c1 [Ex. 4.64]	5 nM	800 nM
Cc1ccc(-c2nc(C)sc2C(=O)N2CC[C@H](C)[C@H]2c2nc3c(C)c(Cl)ccc3[nH]2)cc1 [Ex. 4.65]	8 nM	207 nM
COc1ccc(-n2nccn2)c(C(=O)N2CC[C@H](C)[C@H]2c2nc3c(C)c(Cl)ccc3[nH]2)c1 [Ex. 4.66]	1 nM	23 nM
Cc1nc(C(=O)N2CC[C@H](C)[C@H]2c2nc3c(C)c(Cl)ccc3[nH]2)c(-c2cc(F)cc(F)c2)s1 [Ex. 4.67]	0.9 nM	251 nM
COc1ccc(-c2sc(C)nc2C(=O)N2CC[C@H](C)[C@H]2c2nc3c(C)c(Cl)ccc3[nH]2)cn1 [Ex. 4.69]	2 nM	191 nM
Cc1nc(C(=O)N2CC[C@H](C)[C@H]2c2nc3c(C)c(Cl)ccc3[nH]2)c(-c2ccc(F)cc2)s1 [Ex. 4.70]	0.6 nM	404 nM
Cc1cc2[nH]c([C@@H]3[C@@H](C)CCN3C(=O)c3cc(Cl)ccc3-n3nccn3)nc2cc1Cl [Ex. 4.71]	7 nM	133 nM
Cc1ccc(C(=O)N2CC[C@H](C)[C@H]2c2nc3cc(Cl)c(C)cc3[nH]2)c(-n2nccn2)c1 [Ex. 4.72]	4 nM	51 nM
Cc1ccc(-n2cccn2)c(C(=O)N2CC[C@H](C)[C@H]2c2nc3cc(Cl)c(C)cc3[nH]2)c1 [Ex. 4.73]	17 nM	1290 nM

From patent US9732075B2, “Benzimidazole-proline derivatives” (IDORSIA PHARMACEUTICALS LTD, priority 2012, dated 2017)
